Results: patent US20060128695A1, “Cyclic nucleotide phosphodiesterase inhibitors, preparation and uses” (NEURO3D, priority 2002, published 2006)

Molecular target: T1, PDE2 (Bos taurus, UniProt P14099)
T1 construct: PDE2 was prepared from bovine endothelial cells by the same methods; endogenous in cells; host or cells: bovine endothelial cells
T1 sequence (P14099 1-921): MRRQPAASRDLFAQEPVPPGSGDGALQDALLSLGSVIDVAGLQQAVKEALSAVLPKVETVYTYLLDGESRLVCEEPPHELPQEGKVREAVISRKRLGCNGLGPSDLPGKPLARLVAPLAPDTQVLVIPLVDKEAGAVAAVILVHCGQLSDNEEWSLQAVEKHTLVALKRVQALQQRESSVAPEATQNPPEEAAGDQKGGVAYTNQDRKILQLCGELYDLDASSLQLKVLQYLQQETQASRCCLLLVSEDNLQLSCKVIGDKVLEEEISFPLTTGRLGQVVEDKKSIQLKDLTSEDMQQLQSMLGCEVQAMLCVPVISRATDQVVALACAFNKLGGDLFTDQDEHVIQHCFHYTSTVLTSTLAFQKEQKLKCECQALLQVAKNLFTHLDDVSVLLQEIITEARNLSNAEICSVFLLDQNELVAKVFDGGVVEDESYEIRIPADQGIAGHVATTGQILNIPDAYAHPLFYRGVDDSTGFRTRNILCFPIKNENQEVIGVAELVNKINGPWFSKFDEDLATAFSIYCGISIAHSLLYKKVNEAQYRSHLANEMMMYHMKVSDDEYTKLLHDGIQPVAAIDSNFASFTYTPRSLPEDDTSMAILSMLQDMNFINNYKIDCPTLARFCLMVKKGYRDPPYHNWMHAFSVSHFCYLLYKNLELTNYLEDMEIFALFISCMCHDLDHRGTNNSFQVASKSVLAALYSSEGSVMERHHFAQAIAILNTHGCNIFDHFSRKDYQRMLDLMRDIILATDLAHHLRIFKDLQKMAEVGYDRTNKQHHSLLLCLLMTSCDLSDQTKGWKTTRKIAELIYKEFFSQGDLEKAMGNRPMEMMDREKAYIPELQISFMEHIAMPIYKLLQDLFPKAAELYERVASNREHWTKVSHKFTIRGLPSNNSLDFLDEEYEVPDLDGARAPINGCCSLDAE
Experiment: Inhibition of PDE2, radioenzymatic phosphodiesterase assay
Assay type: biochemical, bovine
Details: not given

SMILES | IC50 [µM]
COc1cc2c(cc1OC)N(C)C(=O)CN=C2c1cccc(C#N)c1 [Compound 4a, 3-(7,8-dimethoxy-1-methyl-2-oxo-2,3-dihydro-1H-1,4-benzodiazepin-5-yl)-benzonitrile] | 6.7
COc1cc2c(cc1OC)N(Cc1ccccc1)C(=O)CN=C2c1cccc(C#N)c1 [Compound 4m, 3-(1-benzyl-7,8-dimethoxy-2-oxo-2,3-dihydro-1H-1,4-benzodiazepin-5-yl)benzonitrile] | 1.5
CCOC(=O)CN1C(=O)CN=C(c2cccc(C#N)c2)c2cc(OC)c(OC)cc21 [Compound 4n, Ethyl[5-(3-cyanophenyl)-7,8-dimethoxy-2-oxo-2,3-dihydro-1H-1,4-benzodiazepin-1-yl]acetate] | 3.7

Same assay, conditions: 10 μM test compound; PDE2 from bovine endothelial cells

SMILES | PDE2 percentage inhibition at 10 μM [%]
COc1cc2c(cc1OC)C(c1cccc(C(F)(F)F)c1)=NCC(=O)N2 [Compound 3d, 7,8-dimethoxy-[5-(3-trifluoromethyl)phenyl]-1,3-dihydro-2H-1,4-benzodiazepin-2-one] | 22
COc1cc2c(cc1OC)N(Cc1ccc(Cl)c(Cl)c1)C(=O)CN=C2c1cccc(C#N)c1 [Compound 4d, 3-[1-(3,4-chlorobenzyl)-7,8-dimethoxy-2-oxo-2,3-dihydro-1H-1,4-benzodiazepin-5-yl]-benzonitrile] | 47.6
COc1ccc(CN2C(=O)CN=C(c3cccc(C#N)c3)c3cc(OC)c(OC)cc32)cc1 [Compound 4e, 3-[7,8-dimethoxy-l-(4-methoxybenzyl)-2-oxo-2,3-dihydro-1H-1,4-benzodiazepin-5-yl]-benzonitrile] | 13.9

Same assay, conditions: read-out: PDE2 percentage inhibition at 10 μM

SMILES | inhibition at 10 µM [%]
COc1cc2c(cc1OC)N(Cc1ccc(Cl)cc1)C(=O)CN=C2c1cccc(C#N)c1 [Compound 4c, 3-[1-(4-chlorobenzyl)-7,8-dimethoxy-2-oxo-2,3-dihydro-1H-1,4-benzodiazepin-5-yl]-benzonitrile] | 35.3
COc1cc2c(cc1OC)N(Cc1cccc(Cl)c1)C(=O)CN=C2c1cccc(C#N)c1 [Compound 4f, 3-[1-(3-chlorobenzyl)-7,8-dimethoxy-2-oxo-2,3-dihydro-1H-1,4-benzodiazepin-5-yl]-benzonitrile] | 17.1
COc1cc2c(cc1OC)N(Cc1cccc(C(F)(F)F)c1)C(=O)CN=C2c1cccc(C#N)c1 [Compound 4g, 3-{7,8-dimethoxy-2-oxo-1-[3-(trifluoromethyl)benzyl]-2,3-dihydro-1H-1,4-benzodiazepin-5-yl]-benzonitrile] | 14.3
COc1cc2c(cc1OC)N(Cc1ccccc1Cl)C(=O)CN=C2c1cccc(C#N)c1 [Compound 4h, 3-[1-(2-chlorobenzyl)-7,8-dimethoxy-2-oxo-2,3-dihydro-1H-1,4-benzodiazepin-5-yl]-benzonitrile] | 16
COc1cc2c(cc1OC)N(Cc1ccc(C(F)(F)F)cc1)C(=O)CN=C2c1cccc(C#N)c1 [Compound 4i, 3-{7,8-dimethoxy-2-oxo-1-[4-(trifluoromethyl)benzyl]-2,3-dihydro-1H-1,4-benzodiazepin-5-yl}-benzonitrile] | 15.7
COc1cc2c(cc1OC)N(CCc1ccccc1)C(=O)CN=C2c1cccc(C#N)c1 [Compound 4j, 3-[7,8-dimethoxy-2-oxo-1-(2-phenylethyl)-2,3-dihydro-1H-1,4-benzodiazepin-5-yl]-benzonitrile] | 5.6
CCN1C(=O)CN=C(c2cccc(C#N)c2)c2cc(OC)c(OC)cc21 [Compound 4k, 3-(1-ethyl-7,8-dimethoxy-2-oxo-2,3-dihydro-1H-1,4-benzodiazepin-5-yl)benzonitrile] | 75.9
CCCN1C(=O)CN=C(c2cccc(C#N)c2)c2cc(OC)c(OC)cc21 [Compound 4l, 3-(7,8-dimethoxy-1-propyl-2-oxo-2,3-dihydro-1H-1,4-benzodiazepin-5-yl)benzonitrile] | 72.1
CCN1C(=O)CN=C(c2cccc(C(F)(F)F)c2)c2cc(OC)c(OC)cc21 [Compound 4q, 7,8-dimethoxy-1-ethyl-5-[3-(trifluoromethyl)phenyl]-1,3-dihydro-2H-1,4-benzodiazepin-2-one] | 32
